In assay [1] the target is PHD2 enzyme (residues 181-417) (Homo sapiens (Human), UniProt Q9GZT9). As to the kind of experiment: Inhibition of PHD enzyme (LC/MS peptide hydroxylation assay). In kind it is biochemical. The settings on record: PHD2 (residues 181-417) 5 nM, 60 min pre-incubation; -log(IC50), IC50 molar. The procedure, abridged: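 Hydroxylated peptide quantified by LC/MS after 60 min turnover of 1 uM biotinylated peptide with 2 uM 2-oxoglutarate and 1 mM ascorbate, stopped by excess tight-binding inhibitor. Beforehand, 5 nM enzyme and compound were preincubated 60 min at RT, pH 7.3 HEPES/KCl/TCEP/FeCl2/BSA buffer. Values as pIC50 (−log molar IC50).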

Assay [2] has as its system HIF1a protein in H9c2 rat cardiomyocytes. As to the kind of experiment: Cell-based HIF-alpha stabilization assay (inhibition of PHD in cells). To be noted: Rattus norvegicus, H9c2, 24 h, 24 hrs compound incubation, HIF1a protein by ELISA, read-out: Inhibition of PHD in cells (pEC50) (converted). The procedure, abridged: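 HIF1a stabilization was measured by ELISA on lysates of H9c2 rat cardiomyocytes after 24 h exposure to 11 serial compound concentrations, expressed relative to the desferrioxamine maximum. Curve fits gave EC50. EC50pos denotes the concentration producing half the desferrioxamine maximal response.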
For orientation: ELISA stands for enzyme-linked immunosorbent assay.

PHD2 enzyme (residues 181-417), sequence (Q9GZT9 181-417): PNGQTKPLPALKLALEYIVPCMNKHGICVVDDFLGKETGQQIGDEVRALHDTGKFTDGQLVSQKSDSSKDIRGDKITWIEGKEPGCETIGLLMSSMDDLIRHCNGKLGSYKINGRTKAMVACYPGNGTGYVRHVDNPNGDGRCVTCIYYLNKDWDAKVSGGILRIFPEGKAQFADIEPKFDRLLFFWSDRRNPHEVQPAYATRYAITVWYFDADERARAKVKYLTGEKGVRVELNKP

In the case of `COCCC(C)(C)NC(=O)c1ccc(-n2ncc(-c3ccc(C#N)cc3)c2O)nc1` [Example 175, 6-(4-(4-cyanophenyl)-5-hydroxy-1H-pyrazol-1-yl)-N-(4-methoxy-2-methylbutan-2-yl)nicotinamide], the “PHD Inhibition (pIC50)” value in assay [1] is 7.37. Besides, the EC50 in assay [2] was 490 nM.
On the same counts, the results for `CCN1CCN(C(=O)c2ccc(-n3ncc(-c4cc(F)c(C#N)cc4C)c3O)nc2)C[C@@H]1C` [Example 397, (S)-4-(1-(5-(4-ethyl-3-methylpiperazine-1-carbonyl)pyridin-2-yl)-5-hydroxy-1H-pyrazol-4-yl)-2-fluoro-5-methylbenzonitrile] are 8.52 and 1620 nM.
Regarding `CC(NC(=O)c1ccc(-n2ncc(-c3ccc(C#N)cc3)c2O)nc1)C1CCCO1` (centres unmarked) [Example 113, 6-(4-(4-cyanophenyl)-5-hydroxy-1H-pyrazol-1-yl)-N-(1-(tetrahydrofuran-2-yl)ethyl)nicotinamide], the “PHD Inhibition (pIC50)” value in assay [1] is given as 7.22. The EC50 in assay [2] is 1380 nM.
On the same counts, the results for `CCOCCNC(=O)c1ccc(-n2ncc(-c3ccc(C#N)cc3)c2O)nc1` [Example 112, 6-(4-(4-cyanophenyl)-5-hydroxy-1H-pyrazol-1-yl)-N-(2-ethoxyethyl)nicotinamide] are 7.32 and 1380 nM.
On the same counts, the results for `Cc1c(-c2cnn(-c3ccc(C(=O)N4CC(N(C)C)C4)cn3)c2O)ccc(C#N)c1F` [Example 321, 4-(1-(5-(3-(dimethylamino)azetidine-1-carbonyl)pyridin-2-yl)-5-hydroxy-1H-pyrazol-4-yl)-2-fluoro-3-methylbenzonitrile] are 8.40 and 589 nM.
For the compound `COCCCNC(=O)c1ccc(-n2ncc(-c3ccnc(OC)c3)c2O)nc1` [Example 203, 6-(5-hydroxy-4-(2-methoxypyridin-4-yl)-1H-pyrazol-1-yl)-N-(3-methoxypropyl)nicotinamide], in assay [1], the “PHD Inhibition (pIC50)” value is 7.1. Further, the EC50 in assay [2] is 603 nM.
Turning to `CCOCCCNC(=O)c1ccc(-n2ncc(-c3ccc(C#N)cc3)c2O)nc1` [Example 162, 6-(4-(4-cyanophenyl)-5-hydroxy-1H-pyrazol-1-yl)-N-(3-ethoxypropyl)nicotinamide], in assay [1], the “PHD Inhibition (pIC50)” value came out at 7.23. Further, the EC50 in assay [2] is 1150 nM.
On the same counts, the results for `COCCCNC(=O)c1ccc(-n2ncc(-c3ccc(C#N)c(C)c3)c2O)nc1` [Example 402, 6-(4-(4-cyano-3-methylphenyl)-5-hydroxy-1H-pyrazol-1-yl)-N-(3-methoxypropyl)nicotinamide] are 7.99 and 4370 nM.
On the same counts, the results for `Cc1cc(C#N)ccc1-c1cnn(-c2ccc(C(=O)N(C)CCCN3CCCCC3)cn2)c1O` [Example 303, 6-(4-(4-cyano-2-methylphenyl)-5-hydroxy-1H-pyrazol-1-yl)-N-methyl-N-(3-(piperidin-1-yl)propyl)nicotinamide] are 7.88 and 282 nM.
On the same counts, the results for `COCCCNC(=O)c1ccc(-n2ncc(-c3ccc(C#N)cc3C)c2O)nc1` [Example 121, 6-(4-(4-cyano-2-methylphenyl)-5-hydroxy-1H-pyrazol-1-yl)-N-(3-methoxypropyl)nicotinamide] are 7.17 and 191 nM.
Turning to `COCC[C@H](C)NC(=O)c1ccc(-n2ncc(-c3ccc(C#N)cc3C)c2O)nc1` [Example 360, (S)-6-(4-(4-cyano-2-methylphenyl)-5-hydroxy-1H-pyrazol-1-yl)-N-(4-methoxybutan-2-yl)nicotinamide], in assay [1], the “PHD Inhibition (pIC50)” value stood at 8.60. Further, in assay [2], the EC50 is 407 nM.
On the same counts, the results for `Cc1cc(-n2ncc(-c3ccc(C#N)cc3)c2O)ncc1C(=O)N(C)C1CCN(C)CC1` [Example 431, 6-(4-(4-cyanophenyl)-5-hydroxy-1H-pyrazol-1-yl)-N,4-dimethyl-N-(1-methylpiperidin-4-yl)nicotinamide] are 7.31 and 2750 nM.
Regarding `COCCCNC(=O)c1ccc(-n2ncc(-c3ccc(C#N)cc3COC)c2O)nc1` [Example 410, 6-(4-(4-cyano-2-(methoxymethyl)phenyl)-5-hydroxy-1H-pyrazol-1-yl)-N-(3-methoxypropyl)nicotinamide], the “PHD Inhibition (pIC50)” value in assay [1] came to 8.07. In assay [2], the EC50 was 513 nM.
For the compound `Cc1cc(C#N)ccc1-c1cnn(-c2ccc(C(=O)N3CC4(COC4)C3)cn2)c1O` [Example 185, 4-(1-(5-(2-oxa-6-azaspiro[3.3]heptane-6-carbonyl)pyridin-2-yl)-5-hydroxy-1H-pyrazol-4-yl)-3-methylbenzonitrile], the “PHD Inhibition (pIC50)” value in assay [1] stood at 8. For the same compound, the EC50 in assay [2] is 562 nM.
With `N#Cc1ccc(-c2cnn(-c3ccc(C(=O)NCCC4CC4)cn3)c2O)cc1` [Example 53, 6-(4-(4-cyanophenyl)-5-hydroxy-1H-pyrazol-1-yl)-N-(2-cyclopropylethyl)nicotinamide], the “PHD Inhibition (pIC50)” value in assay [1] was determined as 7.03. The EC50 in assay [2] is 525 nM.
On the same counts, the results for `N#Cc1ccc(-c2cnn(-c3ccc(C(=O)NC4CCCOC4)cn3)c2O)cc1` (centres unmarked) [Example 155, 6-(4-(4-cyanophenyl)-5-hydroxy-1H-pyrazol-1-yl)-N-(tetrahydro-2H-pyran-3-yl)nicotinamide] are 7.62 and 1550 nM.
On the same counts, the results for `C[C@H]1CC[C@H](NC(=O)c2ccc(-n3ncc(-c4ccc(C#N)cc4)c3O)nc2)CC1` [Example 144, 6-(4-(4-cyanophenyl)-5-hydroxy-1H-pyrazol-1-yl)-N-((1r,4r)-4-methylcyclohexyl)nicotinamide] are 8.1 and 1700 nM.
On the same counts, the results for `N#Cc1ccc(-c2cnn(-c3ccc(C(=O)NC4CCCCC4)cn3)c2O)cc1` [Example 75, 6-(4-(4-cyanophenyl)-5-hydroxy-1H-pyrazol-1-yl)-N-cyclohexylnicotinamide] are 7.28 and 1700 nM.
For `COCCC1(NC(=O)c2ccc(-n3ncc(-c4ccc(C#N)cc4)c3O)nc2)CC1` [Example 208, 6-(4-(4-cyanophenyl)-5-hydroxy-1H-pyrazol-1-yl)-N-(1-(2-methoxyethyl)cyclopropyl)nicotinamide], in assay [1], the “PHD Inhibition (pIC50)” value is reported as 7.8. Also, the EC50 in assay [2] is 269 nM.
For the compound `Cc1cc(C#N)ccc1-c1cnn(-c2ccc(C(=O)NCCOC(F)(F)F)cn2)c1O` [Example 250, 6-(4-(4-cyano-2-methylphenyl)-5-hydroxy-1H-pyrazol-1-yl)-N-(2-(trifluoromethoxy)ethyl)nicotinamide], the “PHD Inhibition (pIC50)” value in assay [1] is on record as 8. Besides, the EC50 in assay [2] is 457 nM.
On the same counts, the results for `CCN1CCN(C(=O)c2ccc(-n3ncc(-c4ccc(C#N)cc4C)c3O)nc2)CC1(C)C` [Example 378, 4-(1-(5-(4-ethyl-3,3-dimethylpiperazine-1-carbonyl)pyridin-2-yl)-5-hydroxy-1H-pyrazol-4-yl)-3-methylbenzonitrile] are 8.21 and 1290 nM.
On the same counts, the results for `COCC1(CNC(=O)c2ccc(-n3ncc(-c4ccc(C#N)cc4)c3O)nc2)CC1` [Example 56, 6-(4-(4-cyanophenyl)-5-hydroxy-1H-pyrazol-1-yl)-N-((1-(methoxymethyl)cyclopropyl)methyl)nicotinamide] are 7.12 and 1450 nM.
Regarding `N#Cc1ccc(-c2cnn(-c3ccc(C(=O)NCc4ccccc4)cn3)c2O)c(F)c1` [Example 220, N-benzyl-6-(4-(4-cyano-2-fluorophenyl)-5-hydroxy-1H-pyrazol-1-yl)nicotinamide], the “PHD Inhibition (pIC50)” value in assay [1] is recorded as 7.13. The EC50 in assay [2] was 1070 nM.
For the compound `N#Cc1ccc(-c2cnn(-c3ccc(C(=O)NC4CCCC4)cn3)c2O)cc1` [Example 151, 6-(4-(4-cyanophenyl)-5-hydroxy-1H-pyrazol-1-yl)-N-cyclopentylnicotinamide], the “PHD Inhibition (pIC50)” value in assay [1] turned out to be 7.12. Also, in assay [2], the EC50 was 3630 nM.
For the compound `COc1cc(-c2cnn(-c3ccc(C(=O)NC4CCC4)cn3)c2O)ccn1` [Example 13, N-cyclobutyl-6-(5-hydroxy-4-(2-methoxypyridin-4-yl)-1H-pyrazol-1-yl)nicotinamide], the “PHD Inhibition (pIC50)” value in assay [1] is recorded as 7.15. The EC50 in assay [2] was 417 nM.
Turning to `Cc1c(-c2cnn(-c3ccc(C(=O)N4CCN(C(C)C)[C@H](C)C4)cn3)c2O)ccc(C#N)c1F` [Example 337, (R)-2-fluoro-4-(5-hydroxy-1-(5-(4-isopropyl-3-methylpiperazine-1-carbonyl)pyridin-2-yl)-1H-pyrazol-4-yl)-3-methylbenzonitrile], the “PHD Inhibition (pIC50)” value in assay [1] was determined as 8.36. Moreover, the EC50 in assay [2] was 1350 nM.
On the same counts, the results for `CC(C)N1CCC(NC(=O)c2ccc(-n3ncc(-c4ccc(C#N)cc4)c3O)nc2)CC1` [Example 115, 6-(4-(4-cyanophenyl)-5-hydroxy-1H-pyrazol-1-yl)-N-(1-isopropylpiperidin-4-yl)nicotinamide] are 6.91 and 1820 nM.
On the same counts, the results for `COCC1(NC(=O)c2ccc(-n3ncc(-c4ccnc(OC)c4)c3O)nc2)CCCC1` [Example 3, 6-(5-hydroxy-4-(2-methoxypyridin-4-yl)-1H-pyrazol-1-yl)-N-(1-(methoxymethyl)cyclopentyl)nicotinamide] are 7.3 and 724 nM.

The values above are taken from US10407409B2, “6-(5-hydroxy-1H-pyrazol-1-yl)nicotinamide inhibitors of PHD” (Takeda Pharmaceutical Company Limited, priority 2013, dated 2019).
